Values of other authors in patent US20050025807A1, “Cured porous calcium phosphate material and uses thereof” (NATIONAL INSTITUTE OF ADVANCED INDUSTRIAL SCIENCE AND …, priority 2003, published 2005).

Details: agitation 200 to 300 rpm at 30° C.; calculated by Nernst-Noyes-Whitney formula

SMILES: CCC1(c2ccccc2)C(=O)NC(=O)NC1=O [phenobarbitol]
- Thickness of diffusion layer: about 30 microns
